How the values were obtained:
HCoV-NL63 = test: Antiviral CPE reduction assay, HCoV-NL63 in Hep3B cells; type: cell-based, human coronavirus NL63; details: Human coronavirus NL63, MTS, mean ± SD of two or three independent experiments
[1] = test system: influenza A/H3N2 (A/HK/7/87); test: Antiviral CPE reduction assay, influenza A/H3N2 in MDCK cells; type: cell-based, influenza A virus; details: Influenza A virus, H3N2; MDCK cells; CPE reduction, MTS; mean ± SD of two or three independent experiments; read-out: Antiviral Activity (EC50) Influenza H3N2
[2] = test system: DND-41 (acute lymphoblastic leukemia); test: MTS proliferation assay, DND-41; details: Homo sapiens, DND41, 72 h, read-out: Anti-Proliferative Activity (IC50) DND-41
[3] = test system: influenza A/H1N1 (A/Ned/378/05); test: Antiviral CPE reduction assay, influenza A/H1N1 in MDCK cells; type: cell-based, influenza A virus; details: Influenza A virus, H1N1; MDCK cells; CPE reduction, MTS; mean ± SD of two or three independent experiments; read-out: Antiviral Activity (EC50) Influenza H1N1
[4] = test system: respiratory syncytial virus A (RSV A Long); test: Antiviral CPE reduction assay, RSV A Long in Hep2 cells; type: cell-based; details: human respiratory syncytial virus, HEp-2; Hep2 cells; CPE reduction, MTS; mean ± SD of two or three independent experiments; read-out: Antiviral Activity (EC50) RSV A Long
HCoV-OC43 = test: Antiviral CPE reduction assay, HCoV-OC43 in HEL299 cells; type: cell-based, human coronavirus OC43; details: Betacoronavirus 1, OC43, HEL 299, MTS, mean ± SD of two or three independent experiments
LN-229 (glioblastoma) = test: MTS proliferation assay, LN-229; details: Homo sapiens, LN-229, 72 h, read-out: Anti-Proliferative Activity (IC50) LN-229
in vitro [5] = details: dog
in vitro [6] = details: African green monkey
in vitro [7] = details: human
[8] = test system: yellow fever virus (YFV 17D); test: microbe, parasite or virus in culture; type: cell-based; details: Yellow fever virus, Vero C1008, read-out: Antiviral activity (EC50) YFV 17D
[9] = test system: NCI-H460 (lung carcinoma); test: MTS proliferation assay, NCI-H460; details: Homo sapiens, NCI-H460, 72 h, read-out: Anti-Proliferative Activity (IC50) NCI-H460
[10] = test system: herpes simplex virus-1 (HSV-1 KOS); test: Antiviral CPE reduction assay, HSV-1 KOS in HEL299 cells; type: cell-based; details: Human alphaherpesvirus 1, HEL 299, MTS, mean ± SD, no unit printed on the supplement page (Table 2 of the same screen is in µM)
[11] = test system: HL-60 (acute myeloid leukemia); test: MTS proliferation assay, HL-60; details: Homo sapiens, HL-60, 72 h, read-out: Anti-Proliferative Activity (IC50) HL-60
[12] = test system: HCT-116 (colorectal carcinoma); test: MTS proliferation assay, HCT-116; details: Homo sapiens, HCT-116, 72 h, read-out: Anti-Proliferative Activity (IC50) HCT-116
in vitro [13] = details: human; remark: listed apart in the source
Zika virus (ZikV mr766) = test: Antiviral CPE reduction assay, Zika virus mr766 in VeroE6 cells; type: cell-based; details: Zika virus, Vero C1008, MTS, mean ± SD, no unit printed on the supplement page (Table 2 of the same screen is in µM)
in vitro [14] = details: human; remark: listed apart in the source
[15] = test system: influenza B (B/Ned/537/05); test: Antiviral CPE reduction assay, influenza B in MDCK cells; type: cell-based, influenza B virus; details: Influenza B virus, MDCK, read-out: Antiviral Activity (EC50) Influenza B
[16] = test system: Capan-1 (pancreatic adenocarcinoma); test: MTS proliferation assay, Capan-1; details: Homo sapiens, CAPAN-1, 72 h, read-out: Anti-Proliferative Activity (IC50) Capan-1
[17] = test system: K-562 (chronic myeloid leukemia); test: MTS proliferation assay, K-562; details: Homo sapiens, K562, 72 h, read-out: Anti-Proliferative Activity (IC50) K-562
HCoV-229E = test: Antiviral CPE reduction assay, HCoV-229E in HEL299 cells; type: cell-based, human coronavirus 229E; details: Human coronavirus 229E, HEL 299, MTS, mean ± SD of two or three independent experiments
[18] = test system: Z-138 (non-Hodgkin lymphoma); test: MTS proliferation assay, Z-138; details: Homo sapiens, Z-138, 72 h, read-out: Anti-Proliferative Activity (IC50) Z-138

In the case of `CCN(CC)CCNc1ncc2c(Nc3cccc4c3CCC4)ncnc2n1` [Compound 7f, N^5-(2,3-dihydro-1H-inden-4-yl)-N^2-[2-(diethylamino)ethyl]pyrimido[4,5-d]pyrimidine-2,5-diamine], the EC50 (HCoV-NL63) is reported as > 50 µM, the EC50 [1] is reported as > 50 µM and the IC50 [2] is reported as > 100 µM. For the same compound, the EC50 [3] was > 50 µM, the EC50 [4] was > 50 µM and the EC50 (HCoV-OC43) was 37.3 ± 15.1 µM. The IC50 (LN-229 (glioblastoma)) was > 100 µM, the CC50 (in vitro [5]) was > 50 µM and the CC50 (in vitro [6]) was > 50 µM. The CC50 (in vitro [7]) was > 50 µM, the melting point was 172.9 °C and the EC50 [8] was > 50 µM. For the same compound, the IC50 [9] was > 100 µM, the EC50 [10] was > 50 µM and the IC50 [11] was > 100 µM. For the same compound, the IC50 [12] was > 100 µM, the CC50 (in vitro [13]) was > 50 µM and the EC50 (Zika virus (ZikV mr766)) was > 50 µM. For the same compound, the CC50 (in vitro [14]) was > 50 µM, the EC50 [15] was > 50 µM and the IC50 [16] was > 100 µM. For the same compound, the IC50 [17] was > 100 µM, the EC50 (HCoV-229E) was 3.9 ± 2.9 µM and the IC50 [18] was > 100 µM.

With `c1cc2c(c(Nc3ncnc4nc(NC5CC5)ncc34)c1)CCC2` [Compound 7g, N^2-cyclopropyl-N^5-(2,3-dihydro-1H-inden-4-yl)pyrimido[4,5-d]pyrimidine-2,5-diamine] the EC50 (HCoV-NL63) was > 50 µM, the EC50 [1] was > 50 µM and the IC50 [2] was > 100 µM. The EC50 [3] was > 50 µM, the EC50 [4] was > 50 µM and the EC50 (HCoV-OC43) was > 50 µM. The IC50 (LN-229 (glioblastoma)) was > 100 µM, the CC50 (in vitro [5]) was > 50 µM and the CC50 (in vitro [6]) was > 50 µM. For the same compound, the CC50 (in vitro [7]) was > 50 µM, the melting point was 290 °C and the EC50 [8] was > 50 µM. For the same compound, the IC50 [9] was > 100 µM, the EC50 [10] was > 50 µM and the IC50 [11] was > 100 µM. The IC50 [12] was > 100 µM, the CC50 (in vitro [13]) was > 50 µM and the EC50 (Zika virus (ZikV mr766)) was > 50 µM. For the same compound, the CC50 (in vitro [14]) was > 50 µM, the EC50 [15] was > 50 µM and the IC50 [16] was > 100 µM. For the same compound, the IC50 [17] was > 100 µM, the EC50 (HCoV-229E) was ≥ 30.5 µM and the IC50 [18] was > 100 µM.

For `C#Cc1cccc(Nc2ncnc3nc(NC4CC4)ncc23)c1` [Compound 7j, N^2-cyclopropyl-N^5-(3-ethynylphenyl)pyrimido[4,5-d]pyrimidine-2,5-diamine], the EC50 (HCoV-NL63) was > 50 µM, the EC50 [1] was > 50 µM and the IC50 [2] was > 100 µM. The EC50 [3] was > 50 µM, the EC50 [4] was > 50 µM and the EC50 (HCoV-OC43) was > 50 µM. For the same compound, the IC50 (LN-229 (glioblastoma)) was > 100 µM, the CC50 (in vitro [5]) was > 50 µM and the CC50 (in vitro [6]) was > 50 µM. The CC50 (in vitro [7]) was > 50 µM, the melting point was 296 °C and the EC50 [8] was > 50 µM. The IC50 [9] was > 100 µM, the EC50 [10] was > 50 µM and the IC50 [11] was > 100 µM. For the same compound, the IC50 [12] was > 100 µM, the CC50 (in vitro [13]) was > 50 µM and the EC50 (Zika virus (ZikV mr766)) was > 50 µM. The CC50 (in vitro [14]) was > 50 µM, the EC50 [15] was > 50 µM and the IC50 [16] was > 100 µM. The IC50 [17] was > 100 µM, the EC50 (HCoV-229E) was > 50 µM and the IC50 [18] was > 100 µM.

With `CCN(CC)CCNc1ncc2c(Nc3cccnc3)ncnc2n1` [Compound 7l, N^2-[2-(diethylamino)ethyl]-N^5-(pyridin-3-yl)pyrimido[4,5-d]pyrimidine-2,5-diamine] the EC50 (HCoV-NL63) was > 50 µM, the EC50 [1] was > 50 µM and the IC50 [2] was > 100 µM. The EC50 [3] was > 50 µM, the EC50 [4] was > 50 µM and the EC50 (HCoV-OC43) was > 50 µM. The IC50 (LN-229 (glioblastoma)) was > 100 µM, the CC50 (in vitro [5]) was > 50 µM and the CC50 (in vitro [6]) was > 50 µM. For the same compound, the CC50 (in vitro [7]) was > 50 µM, the melting point was 220 to 224 °C and the EC50 [8] was > 50 µM. The IC50 [9] was > 100 µM, the EC50 [10] was > 50 µM and the IC50 [11] was > 100 µM. For the same compound, the IC50 [12] was > 100 µM, the CC50 (in vitro [13]) was > 50 µM and the EC50 (Zika virus (ZikV mr766)) was > 50 µM. For the same compound, the CC50 (in vitro [14]) was > 50 µM, the EC50 [15] was > 50 µM and the IC50 [16] was > 100 µM. The IC50 [17] was > 100 µM, the EC50 (HCoV-229E) was > 50 µM and the IC50 [18] was > 100 µM.

In the case of `c1cncc(Nc2ncnc3nc(NC4CC4)ncc23)c1` [Compound 7m, N^2-cyclopropyl-N^5-(pyridin-3-yl)pyrimido[4,5-d]pyrimidine-2,5-diamine], the EC50 (HCoV-NL63) is reported as > 50 µM, the EC50 [1] is reported as > 50 µM and the IC50 [2] is reported as > 100 µM. The EC50 [3] was > 50 µM, the EC50 [4] was > 50 µM and the EC50 (HCoV-OC43) was > 50 µM. For the same compound, the IC50 (LN-229 (glioblastoma)) was > 100 µM, the CC50 (in vitro [5]) was > 50 µM and the CC50 (in vitro [6]) was > 50 µM. For the same compound, the CC50 (in vitro [7]) was > 50 µM, the melting point was 243 °C and the EC50 [8] was > 50 µM. The IC50 [9] was > 100 µM, the EC50 [10] was > 50 µM and the IC50 [11] was > 100 µM. The IC50 [12] was > 100 µM, the CC50 (in vitro [13]) was > 50 µM and the EC50 (Zika virus (ZikV mr766)) was > 50 µM. For the same compound, the CC50 (in vitro [14]) was > 50 µM, the EC50 [15] was > 50 µM and the IC50 [16] was > 100 µM. For the same compound, the IC50 [17] was > 100 µM, the EC50 (HCoV-229E) was > 50 µM and the IC50 [18] was > 100 µM.

Reference: publication PMC11643962, “Exploring 4,7-Disubstituted Pyrimido[4,5-d]pyrimidines as Antiviral and Anticancer Agents” (Molecules, 2024)
